# Publication PMC5642494 (Oncotarget, 2017)
# Tested on: H3K9me3
# Test: Hypermethylation of histone H3 at lysine 9 (H3K9me3), MCF7
# Assay type: cell-based
# Conditions: Homo sapiens, 2 DT, n = 2, read-out: EC50 H3K9me3 levels
# Protocol: Relative IC50/EC50 values were determined by curve fitting to a four parameter logistic equation: Y = bottom + ((top-bottom)/ (1+exp(HillSlope*(X – LnIC50)), where X is the natural log of dose/concentration, Y is response, decreasing as X increases, top and bottom are plateaus in the same units as Y, lnIC50 is the natural log of potency, in the same log units as X, and HillSlope measures the steepness of the curve. Data were plotted using GraphPad Prism.
# BioResearch) where indicated; the dates of acquisition and in an Acumen Explorer Ex3 (TTP Labtech), raw data testing are listed in parentheses: ZR-75-1; T-47D; MDA- were analyzed with Cellista software and then further MB-468; HCC70; BT-549; BT-20; MDA-MB-231; MDA- normalized in Excel against the values obtained for cells MB-175-VII, HCC-1937; MDA-MB-415. treated with 2 µM BEZ235, or vehicle (0.2% v/v DMSO); data were graphed using GraphPad Prism®. Images were SA-β-galactosidase immunocytochemical labeling taken by fluorescent microscopy using a Leica DMiL. […]
# SA-β-gal Cell samples were lysed after treatment with expression was determined using the Senescence Cells 100 µL lysis buffer and transferred to a 96-well plate. […]
# (BSA) (Invitrogen #15260-037) for 1 hour at 25°C. EdU Samples were analyzed by LC─MS/MS under the detection was performed using the Click-iT High Content conditions described below. […]
smiles,measurement,value
"CCN1CCN(Cc2ccc(Nc3ncc(F)c(-c4cc(F)c5nc(C)n(C(C)C)c5c4)n3)nc2)CC1 [abemaciclib, Abemaciclib]",EC50,0.34 ± 0.016 µM
